Publication PMC6950567, “Evaluation of Marine Diindolinonepyrane in Vitro and in Vivo: Permeability Characterization in Caco-2 Cells Monolayer and Pharmacokinetic Properties in Beagle Dogs” (Marine Drugs, 2019)
Entries after “also recorded” stand apart in the source; their conditions may differ. Read-outs that look alike come from different tables or passages of the source.

What was measured:
fibrinolytic enzyme = tested on: fibrinolytic enzyme; design: method as in earlier work; conditions: cited from earlier work
[1] = Pharmacokinetics after intravenous injection in beagle dogs; format: in vivo; conditions: for Cmax / MRT / clearance / half-life: male, dog, whole blood
Procedure: Male beagle dogs (SPF, 10.2–10.8 kg, aged 2 years) were provided by the Xingang Experimental Animal Co., Ltd. (Shanghai, China). All dogs were fed with standard laboratory food and water ad libitum at least 3 days prior to the experiments in an environmentally controlled room (12 h dark-light cycle; ~25 °C, 60% humidity, GB14925-2001). All protocols and procedures were approved by the Institutional Animal Care and Use Committee of Shanghai Ocean University (Approval number: 13-0012). The blood and tissues of the dogs were removed while the dogs were ether anesthetized. Their plasma was collected from the fossa orbitalis vein. Every effort was made to minimize animal pain and suffering.
2,5-BHPA was dissolved in normal saline with NaHCO3 as a solvent (2,5-BHPA/NaHCO3, m/m, 1:1), which was agitated overnight on a magnetic stirrer. Subsequently, it was diluted to different concentrations, filtered, and stored in a refrigerator at 4 °C. The dose was adjusted according to the body weight of the beagle dogs in a volume of 200 µL, and 2,5-BHPA was administered by intravenous injection (7.5, 5.0, and 2.5 mg/kg). Subcutaneous injection in the forearm was used in the experiment.
Nine dogs were randomly divided into three groups (n = 3) and fasted for 24 h with water ad libidum. 2,5-BHPA was administered by intravenous injection (7.5, 5.0, and 2.5 mg/kg). The volume of the three sample levels was identical. The blood samples of 200 µL were drawn at 0, 1, 5, 15, 30, 40, 60, 120, and 240 min after drug treatment, and the samples were immediately stored with 1.8 mL of methanol (methanol:blood = 9:1, v/v). The samples were mixed and centrifuged at 5000× g for 15 min at RT, and the supernatants were filtered for HPLC analysis.
The data were processed with Microsoft Excel 2013 edited by Microsoft (Seattle, WA, USA) and SPSS V25.0 edited by SPSS (Chicago, IL, USA). PKsolver V2.0 edited by China Pharmaceutical University (Nanjing, China) was used to calculate the pharmacokinetic parameters and the compartment model. The image was processed with Origin 9.0 software edited by Origin Lab (Northampton, MA, USA).

Caco-2 cells monolayer = Caco-2 cells monolayer absorption and bidirectional transport experiment; format: in vitro ADME, human
Procedure: (§1) The samples included three control drugs (fenoterol, propranolol, and digoxin) and 2,5-BHPA. […] For transfer in the AP→BL direction, 0.075 mL drug solution was added to the AP side as the supply pool, and 0.25 mL HBSS solution was added to the BL side as the receiving pool. In the BL→AP direction, 0.25 mL compound solution was added to the BL side as the supply pool, and 0.075 mL HBSS solution was added to the AP side as the receiving pool. The transwell plate was then cultured in an incubator at 37 °C for 2 h. Samples on the AP side and BL side were collected, respectively. Then, acetonitrile containing an internal label was added to each upper chamber to lyse transport membranes. The total recovery was calculated by collecting the amount of lead compound absorbed on the membrane surface or accumulated in the cell. Finally, the concentration of each sample was calculated as the ratio of the peak area between the compound and the inner target through mass spectrum analysis (API 4000).
(§2) Papp = (dCr/dt) × Vr/(A × C0)(2) where dCr/dt is the cumulative compound concentration per unit of time (µM/s); Vr is the volume in the receiving hole (mL); A is the transport membrane area; and C0 is the compound initiation concentration (µM).

[2] = as above; format: in vitro ADME, human; conditions: human
Procedure: as §1, §2

[3] = beagle dogs, intravenous, 2.5 mg·kg^−1
[4] = beagle dogs, intravenous, 5.0 mg·kg^−1
[5] = beagle dogs, intravenous, 7.5 mg·kg^−1
[6] = 5 µM, 0.1% bull serum albumin added
[7] = 15 µM, 0.1% bull serum albumin added
[8] = 25 µM, 0.1% bull serum albumin added

## CC(C)=CCCC(C)=CCCC1(C)Oc2c(c(O)cc3c2CN(CCCC(C(=O)O)N2Cc4c(cc(O)c5c4OC(C)(CCC=C(C)CCC=C(C)C)C(O)C5)C2=O)C3=O)CC1O (centres unmarked) [2,5-BHPA, 2,5-Bis-[8-(4,8-dimethyl-nona-3,7-dienyl)-5,7-dihydroxy-8-methyl-3-keto-1,2,7,8-tertahydro-6H-pyran[a]isoindol-2-yl]-pentanoic acid]
Fibrinolytic enzyme
  fibrinolytic activity: has been shown to have fibrinolytic activity
[1]; [3]
  K10: 0.055 ± 0.021 min⁻¹
  K12: 0.009 ± 0.004 min⁻¹
  K21: 0.018 ± 0.001 min⁻¹
  Cmax: 13600 ± 2760 ng/mL
  MRT: 28.7 min
  clearance: 9.2 ± 0.6 mL/min/kg
  half-life: 49 ± 2 min
[1]; [4]
  K10: 0.075 ± 0.012 min⁻¹
  K12: 0.017 ± 0.002 min⁻¹
  K21: 0.018 ± 0.001 min⁻¹
  Cmax: 48600 ± 5530 ng/mL
  MRT: 26.2 min
  clearance: 7.1 ± 0.8 mL/min/kg
  half-life: 48 ± 2 min
[1]; [5]
  K10: 0.051 ± 0.015 min⁻¹
  K12: 0.007 ± 0.004 min⁻¹
  K21: 0.017 ± 0.003 min⁻¹
  Cmax: 56500 ± 6230 ng/mL
  MRT: 28.2 min
  clearance: 6.2 ± 0.4 mL/min/kg
  half-life: 49 ± 2 min
[1]; beagle dogs, intravenous, 7.5, 5.0, 2.5 mg·kg^−1, weight = 1/c^2
  compartment model of plasma concentration-time curves: fitted well to a two-compartment model; also recorded: consistent with the two-compartment model
[1]; dogs (this study) versus rats [14]
  half-life (T1/2) in dogs compared with rats: about two times longer than in rats
[1]; dogs, intravenous, dose range 2.5-7.5 mg/kg, from CL and MRT
  dose linearity of pharmacokinetics: linear pharmacokinetic characteristics
Caco-2 cells monolayer; 0.5 μM, no BSA
  Recoveries AP to BL: 8.745 ± 0.155%
  Recoveries BL to AP: 25.54 ± 1.55%
  Total Recoveries AP to BL: 35.77 ± 1.29%
  Total Recoveries BL to AP: 25.48 ± 1.13%
Caco-2 cells monolayer; 2 µM to 25 µM
  transport mechanism in the Caco-2 model: may involve passive diffusion
Caco-2 cells monolayer; 2 μM, no BSA
  Recoveries AP to BL: 13.419 ± 0.566%
  Recoveries BL to AP: 47.16 ± 1.32%
  Total Recoveries AP to BL: 39.67 ± 1.47%
  Total Recoveries BL to AP: 47.69 ± 2.10%
Caco-2 cells monolayer; [6]
  Recoveries AP to BL: 85.52 ± 2.34%
  Recoveries BL to AP: 96.32 ± 5.15%
  Total Recoveries AP to BL: 92.83 ± 3.44%
  Total Recoveries BL to AP: 96.41 ± 3.52%
Caco-2 cells monolayer; 5 μM, no BSA
  Recoveries AP to BL: 26.76 ± 1.02%
  Recoveries BL to AP: 52.42 ± 2.20%
  Total Recoveries AP to BL: 52.34 ± 4.34%
  Total Recoveries BL to AP: 53.02 ± 2.01%
Caco-2 cells monolayer; [7]
  Recoveries AP to BL: 84.85 ± 3.36%
  Recoveries BL to AP: 96.18 ± 6.56%
  Total Recoveries AP to BL: 92.83 ± 4.26%
  Total Recoveries BL to AP: 96.97 ± 4.32%
Caco-2 cells monolayer; [8]
  Recoveries AP to BL: 82.25 ± 2.28%
  Recoveries BL to AP: 89.52 ± 4.19%
  Total Recoveries AP to BL: 90.91 ± 4.63%
  Total Recoveries BL to AP: 89.63 ± 3.26%
Caco-2 cells monolayer; Papp ≤ 2.5 (×10^−6 cm·s^−1) indicated low permeability
  permeability classification: low permeability
[2]; Caco-2, 0.5 μM, no BSA
  efflux ratio at 2 h, 0.5 µM: 1.13
[2]; Caco-2, 0.5 μM, no BSA, 2 h, read-out: Mean Papp AP to BL
  Papp A→B at 2 h, 0.5 µM: 0.493 ± 0.016 ×10⁻⁶ cm/s
[2]; Caco-2, 0.5 μM, no BSA, 2 h, read-out: Mean Papp BL to AP
  Papp B→A at 2 h, 0.5 µM: 0.555 ± 0.09 ×10⁻⁶ cm/s
[2]; Caco-2, 2 μM, no BSA
  efflux ratio at 2 h, 2 µM: 1.55
[2]; Caco-2, 2 μM, no BSA, 2 h, read-out: Mean Papp AP to BL
  Papp A→B at 2 h, 2 µM: 0.048 ± 0.006 ×10⁻⁶ cm/s
[2]; Caco-2, 2 μM, no BSA, 2 h, read-out: Mean Papp BL to AP
  Papp B→A at 2 h, 2 µM: 0.065 ± 0.005 ×10⁻⁶ cm/s
[2]; Caco-2, 5 µM, 0.1% bull serum albumin added
  efflux ratio at 2 h, 5 µM: 1.56
[2]; Caco-2, 5 µM, 0.1% bull serum albumin added, read-out: Mean Papp AP to BL
  Papp A→B at 2 h, 5 µM: 0.097 ± 0.005 ×10⁻⁶ cm/s
[2]; Caco-2, 5 µM, 0.1% bull serum albumin added, read-out: Mean Papp BL to AP
  Papp B→A at 2 h, 5 µM: 0.153 ± 0.012 ×10⁻⁶ cm/s
[2]; Caco-2, 5 μM, no BSA
  efflux ratio at 2 h, 5 µM: 1.06
[2]; Caco-2, 5 μM, no BSA, 2 h, read-out: Mean Papp AP to BL
  Papp A→B at 2 h, 5 µM: 0.044 ± 0.003 ×10⁻⁶ cm/s
[2]; Caco-2, 5 μM, no BSA, 2 h, read-out: Mean Papp BL to AP
  Papp B→A at 2 h, 5 µM: 0.043 ± 0.004 ×10⁻⁶ cm/s
[2]; Caco-2, 15 µM, 0.1% bull serum albumin added
  efflux ratio at 2 h, 15 µM: 2.91
[2]; Caco-2, 15 µM, 0.1% bull serum albumin added, read-out: Mean Papp AP to BL
  Papp A→B at 2 h, 15 µM: 0.045 ± 0.002 ×10⁻⁶ cm/s
[2]; Caco-2, 15 µM, 0.1% bull serum albumin added, read-out: Mean Papp BL to AP
  Papp B→A at 2 h, 15 µM: 0.132 ± 0.035 ×10⁻⁶ cm/s
[2]; Caco-2, 25 µM, 0.1% bull serum albumin added
  efflux ratio at 2 h, 25 µM: 1.49
[2]; Caco-2, 25 µM, 0.1% bull serum albumin added, read-out: Mean Papp AP to BL
  Papp A→B at 2 h, 25 µM: 0.146 ± 0.009 ×10⁻⁶ cm/s
[2]; Caco-2, 25 µM, 0.1% bull serum albumin added, read-out: Mean Papp BL to AP
  Papp B→A at 2 h, 25 µM: 0.216 ± 0.031 ×10⁻⁶ cm/s
[2]; Caco-2, text summary of Table 2, 0.1% BSA added, read-out: Papp, AP→BL or BL→AP direction
  Papp at 2 h: ≤ 2.5 ×10⁻⁶ cm/s
[2]; Caco-2, text summary of Table 2, 0.1% BSA added, read-out: total recovery rate
  recovery at 2 h: > 90%
[2]; Caco-2, text summary, no BSA, over the concentrations tested, read-out: Papp range
  Papp at 2 h: 0.04 to 0.49 ×10⁻⁶ cm/s
[2]; Caco-2, text summary, no BSA, over the concentrations tested, read-out: total recovery rate AP→BL
  recovery at 2 h: 35.8 to 52.4%
[2]; Caco-2, text summary, no BSA, over the concentrations tested, read-out: total recovery rate BL→AP
  recovery at 2 h: 25.9 to 53%
